SMILES strings stand for the structures.

Here are results for 59 molecules from the METLIN SMRT retention time set (Domingo-Almenara et al. 2019).

The data set is described as follows: gradient 5% acetonitrile 3 min, to 50% in 2 min, to 85% in 15 min, held 3 min, 100 µL/min. As to conditions: column: Zorbax Extend-C18 2.1 x 50 mm; eluents: water / acetonitrile, 0.1% formic acid. A digest of the protocol:
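In both positive and negative ionization mode, a quadrupole time-of-flight mass spectrometer coupled to HPLC analyzed pure standards run in mixtures of ~100 molecules. The Zorbax Extend-C18 column (2.1 × 50 mm, 1.8 μm) was operated at 100 μL/min with water and acetonitrile, each containing 0.1% formic acid. The dead volume was 40 μL and the dwell volume 900 μL. Retention time came from adduct peaks that were computationally picked and individually inspected by hand.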
For the molecule `CCOc1ccc(NC(=O)C2CCN(S(C)(=O)=O)c3cc(Cl)ccc3O2)cc1` (centres undefined), the RP-LC retention time came to 877 s.
The molecule `O=[N+]([O-])c1ccc(CSc2nc3ccccc3o2)cc1` came in with an RP-LC retention time of 1020 s.
The figure for `Cc1sc2ccn(CC(C)C)c(=O)c2c1C(=O)NCc1ccco1` is 889 s; for `CCCNC(=O)NCCc1cn(CC)c2ncccc12` it is 612 s; for `O=C(c1cccc2[nH]ccc12)N1CCC2(CC1)N=C(c1ccc(Cl)cc1)NO2` it is 804 s.
The figure for `COc1ccc(/C=C\c2onc(C)c2NC(C)=O)cc1S(=O)(=O)N1CCN(c2ncccn2)CC1` is 738 s; for `CS(=O)(=O)c1ccc2nc(NC(=O)C3COCC(=O)N3Cc3ccccc3)sc2c1` (centres undefined) it is 649 s; for `O=C(Cc1nnc(-c2cccc(F)c2)o1)Nc1ccccc1` it is 808 s.
To `O=S(=O)(c1ccc2nc(N3CCN(c4ccccc4F)CC3)ccc2c1)N1CCOCC1` belongs 939 s; to `COCCNC(=O)CCc1cc2cc(C)ccc2[nH]c1=O`, 637 s; to `COc1ccc(-n2c(N)cc(=O)nc2SCC(=O)Nc2cc(C)on2)cc1`, 588 s.
`CCOc1ccc(Cl)cc1S(=O)(=O)N1CCC(C(=O)NCCOC)CC1` gave an RP-LC retention time of 753 s.
The figure for `Cc1cnc(-c2ccccc2)n1C1CN(S(=O)(=O)c2cccc(F)c2)C1` is 670 s; for `CCN1C(=O)c2cccnc2Sc2cc(NC(=O)c3ccc(C(F)(F)F)cc3)ccc21` it is 950 s.
Take `CCC(C)NS(=O)(=O)c1cccc(-c2nc(-c3ccccc3)no2)c1` (centres undefined): the RP-LC retention time amounted to 786 s.
The figure for `COc1ccc(Cl)cc1NC(=O)CSc1nnc2c3cc(-c4ccc(C)cc4)nn3ccn12` is 1040 s; for `CC(C)CC(=O)NCCc1csc(-c2ccc(Cl)cc2)n1` it is 881 s; for `Cc1cccc(CNC(=O)CN2C(=O)CCc3cc(S(=O)(=O)N4CCCCC4C)ccc32)c1` (centres undefined) it is 998 s.
To `CCN1CCN(CCCNC(=O)C2CCCN(c3nnc(-n4c(C)ccc4C)s3)C2)CC1` (centres undefined) belongs 592 s; to `CCOc1ccccc1CNC(=O)CCc1c(-c2ccc(Br)cc2)nc2ccccn12`, 744 s; to `COC(=O)c1ccc2c(=O)n(-c3ccccc3)c(N3CCN(c4ccccn4)CC3)nc2c1`, 684 s.
The figure for `O=C(Cn1nc(C(=O)N2CCCC2)c2ccccc21)Nc1cccc(Br)c1` is 903 s; for `O=C(Nc1ccc(Br)cc1F)Nc1c(-c2ccc(F)cc2)nc2ccccn12` it is 744 s; for `COc1ccc(C2(C(=O)N3CCC(c4nc(CCOCC5CCCC5)no4)C3)CC2)cc1` (centres undefined) it is 1060 s.
As to `CCOc1cccc(-c2noc(Cn3c(=O)n(CC)c(=O)c4ccccc43)n2)c1`, the RP-LC retention time was found to be 983 s.
To `Cc1nc(-c2noc(-c3ccc(F)cc3)n2)cn1CC(=O)NC1CCc2ccccc21` (centres undefined) belongs 874 s; to `CCC(=O)Nc1ccc(-n2cnc(C(=O)N3CCN(c4cccc(OC)c4)CC3)c2)nc1`, 717 s.
The figure for `O=C(Nc1cnn(-c2ncc(N3CCCC3)cn2)c1)Nc1ccccc1C(F)(F)F` is 850 s; for `Cn1c(C2CCN(C(=O)Nc3cc(F)cc(F)c3)CC2)cc(=O)n2nccc12` it is 695 s; for `COc1ccc(CCc2nc3nccc(-c4ccccn4)n3n2)cc1OC` it is 752 s.
To `COC(=O)c1ccc(C(=O)NCC2CCN(Cc3ccccc3SC)CC2)cc1` belongs 567 s.
Turning to `CCC(C(=O)NCCCN1CCN(C)CC1)n1c2ccccc2c2cnn(C)c(=O)c21` (centres undefined), the RP-LC retention time came out at 560 s.
To `CSc1cccc(NC(=O)N2CCN(C)CC2)c1` belongs 647 s; to `COCCOc1ccc(C(=O)N2CCNC(=O)C2CC(=O)OC2CCCCC2)cc1` (centres undefined), 720 s.
Consider `O=C(NCc1ccco1)C1CCN(c2nnc(-c3ccccc3)o2)CC1`, for which the RP-LC retention time came to 718 s.
The figure for `COc1ccc(-c2nc(NCc3cccnc3)c3ccccc3n2)cc1` is 574 s; for `O=C(NCCc1nc2cccnc2n1-c1ccccc1)C1CCCCC1` it is 730 s; for `Fc1ccccc1N1CCN(Cc2nc(-c3ccc(N4CCCCC4)nc3)no2)CC1` it is 972 s.
The figure for `CC1CCCN(c2ccn3c(=O)n(CC(=O)Nc4ccc(F)c(Cl)c4)nc3n2)C1` (centres undefined) is 834 s; for `CN1C(=O)CSc2cnn(CC(=O)NC3CCCCC3)c(=O)c21` it is 646 s.
`Cc1cc(N2CCN(C(=O)c3nccc4ccccc34)CC2)nc2nnc(C)n12` displayed an RP-LC retention time of 592 s.
To `Cc1ccccc1Cn1nc2ccc(S(=O)(=O)N3CCC(C)CC3)cn2c1=O` belongs 1060 s.
To `CCc1ccc(C(=O)NC2CCN(c3cc(-c4cccs4)[nH]n3)C2)cc1` (centres undefined) belongs 730 s.
Consider `Cc1nc(N2CCCC(C(=O)NC3CCCC3)C2)c2c(C)c(C)oc2n1` (centres undefined), for which the RP-LC retention time came to 799 s.
To `Cc1nc2ccn(Cc3cccs3)c(=O)c2cc1C(=O)NC1CCCC1` belongs 736 s.
To `O=C(Cc1nnc2c(-c3nc(C4CC4)no3)cccn12)NC1CCCCC1` belongs 685 s; to `COc1ccc(-c2noc(C3CCCN3C(=O)COc3ccc(Cl)cc3)n2)cc1` (centres undefined), 1030 s; to `CCN1CCN(c2cc(C(=O)O)c3cc(NS(=O)(=O)c4ccc(C(C)C)cc4)ccc3n2)CC1`, 724 s.
As to `COc1ccc(CN2CC3(CCN(S(=O)(=O)Cc4ccccc4)CC3)C2=O)cc1`, the RP-LC retention time was found to be 882 s.
In the case of `Cc1ccc2oc(-c3noc(C(=O)NC(C)Cc4ccco4)n3)c(C)c2c1` (centres undefined), the RP-LC retention time is 1180 s.
Turning to `O=C(NCCCN1CCCCCC1)C(c1ccccc1)C1CCCCC1` (centres undefined), the RP-LC retention time was 875 s.
To `CC(C)(C)CC(=O)Nc1cnc(-c2cccnc2)nc1` belongs 665 s; to `COc1ccc(C2CC(=O)c3c([nH]c(C(=O)OC4CCCC4C)c3C)C2)cc1OC` (centres undefined), 1050 s.
The figure for `Cc1nc(Cn2cccc2C(=O)Nc2cc(Cl)ccc2C)no1` is 915 s; for `Cc1ccccc1-c1noc(Cn2ccn(-c3ccccc3C)c(=O)c2=O)n1` it is 880 s; for `CN1C(=O)Cc2ccccc2C1C(=O)NCc1ccc(F)cc1` (centres undefined) it is 706 s.
The figure for `CC1CCN(S(=O)(=O)c2ccc3c(c2)CCCC(=O)N3CC(=O)NC2CCCCC2)CC1` is 987 s; for `O=C(Cc1ccc(Cl)cc1)NC1CCN(c2cc(-c3cccs3)[nH]n2)C1` (centres undefined) it is 749 s.
Turning to `Cc1occc1C(=O)Nc1nc(-c2ccc3ccccc3c2)cs1`, the RP-LC retention time is 1170 s.
